Columns and labels:
[1] = Chemical stability in simulated intestinal fluid assessed as parent compound remaining incubated for 12 hrs by LC-MS/MS analysis; type: ADME, physicochemical; conditions: simulated gi fluid
[2] = Chemical stability in simulated gastric fluid assessed as parent compound remaining incubated for 12 hrs by LC-MS/MS analysis; type: ADME, physicochemical; conditions: simulated gi fluid
[3] = Chemical stability of compound in pH 1.2 HCl buffer at 100 uM incubated for 24 hrs by HPLC analysis; type: physicochemical; conditions: pH 1.2, 24 h
[4] = Chemical stability of compound in pH 4.5 PBS buffer at 100 uM incubated for 24 hrs by HPLC analysis; type: physicochemical; conditions: pH 4.5, 24 h
[5] = Chemical stability of compound in pH 7.4 PBS buffer at 100 uM incubated for 24 hrs by HPLC analysis; type: physicochemical; conditions: pH 7.4, 24 h
[6] = Prodrug conversion in Sprague-Dawley rat colon content suspension assessed as tofacitinib release measured upto 8 hrs by HPLC analysis; type: ADME, tissue-based
[7] = Prodrug conversion in Sprague-Dawley rat assessed as AUC (0 to infinity) of tofacitinib at 15 mg/kg, po measured up to 12 hrs by LC-MS/MS analysis; type: ADME, organism-based; set-up: route oral, dose 15 mg/kg, time <=12; conditions: in vivo
[8] = Prodrug conversion in Sprague-Dawley rat assessed as Cmax of tofacitinib at 15 mg/kg, po measured up to 12 hrs by LC-MS/MS analysis; type: ADME, organism-based; set-up: route oral, dose 15 mg/kg, time <=12; conditions: in vivo
[9] = Prodrug conversion in Sprague-Dawley rat assessed as Tmax of tofacitinib at 15 mg/kg, po measured up to 12 hrs by LC-MS/MS analysis; type: ADME, organism-based; conditions: in vivo
[10] = Prodrug conversion in Sprague-Dawley rat assessed as elimination half life of tofacitinib at 15 mg/kg, po measured up to 12 hrs by LC-MS/MS analysis; type: ADME, organism-based; conditions: in vivo
[11] = Prodrug conversion in BALB/c mouse plasma assessed as tofacitinib AUC(0 to 12 hrs) at 15 mg/kg, po measured upto 12 hrs by LC-MS/MS analysis; type: ADME, organism-based; set-up: route oral, dose 15 mg/kg, time <=12; conditions: in vivo
[12] = Prodrug conversion in BALB/c mouse duodenum assessed as tofacitinib AUC(0 to 12 hrs) at 15 mg/kg, po measured upto 12 hrs by LC-MS/MS analysis; type: ADME, organism-based; set-up: route oral, dose 15 mg/kg, time <=12; conditions: in vivo
[13] = Prodrug conversion in BALB/c mouse jejunum assessed as tofacitinib AUC(0 to 12 hrs) at 15 mg/kg, po measured upto 12 hrs by LC-MS/MS analysis; type: ADME, organism-based; set-up: route oral, dose 15 mg/kg, time <=12; conditions: in vivo
[14] = Prodrug conversion in BALB/c mouse ileum assessed as tofacitinib AUC(0 to 12 hrs) at 15 mg/kg, po measured upto 12 hrs by LC-MS/MS analysis; type: ADME, organism-based; set-up: route oral, dose 15 mg/kg, time <=12; conditions: in vivo
[15] = Prodrug conversion in BALB/c mouse colon assessed as tofacitinib AUC(0 to 12 hrs) at 15 mg/kg, po measured upto 12 hrs by LC-MS/MS analysis; type: ADME, organism-based; set-up: route oral, dose 15 mg/kg, time <=12; conditions: in vivo

Structure (SMILES)	Stability [1]	Stability [2]	Stability [3]	Stability [4]	Stability [5]	Drug metabolism [6]	AUC [7]	Cmax [8]	Tmax [9]	beta t1/2 [10]	AUC [11]	AUC [12]	AUC [13]	AUC [14]	AUC [15]
Cc1cc(COC(=O)N(C)CCN(C)C(=O)n2ccc3c(N(C)[C@H]4CN(C(=O)CC#N)CC[C@H]4C)ncnc32)ccc1/N=N/c1ccc(O)c(C(=O)O)c1	Stable	Stable	Stable	Stable	Stable	1.6 mmol/L/h									
C[C@@H]1CCN(C(=O)CC#N)C[C@@H]1N(C)c1ncnc2[nH]ccc12.O=C(O)CC(O)(CC(=O)O)C(=O)O [TOFACITINIB CITRATE]							70.66 µM·h	54.9 µM	0.42 h	3.94 h	7.1 µM·h	67 µM·h	43 µM·h	50.3 µM·h	167 µM·h
COc1cc(/N=N/c2ccc(O)c(C(=O)O)c2)ccc1COC(=O)N(C)CCN(C)C(=O)n1ccc2c(N(C)[C@H]3CN(C(=O)CC#N)CC[C@H]3C)ncnc21	Stable	Stable	Stable	Stable	Stable	2.44 mmol/L/h									

The remaining lines, values ahead:

Stability [1]	Stability [2]	Stability [3]	Stability [4]	Stability [5]	Drug metabolism [6]	AUC [7]	Cmax [8]	Tmax [9]	beta t1/2 [10]	AUC [11]	AUC [12]	AUC [13]	AUC [14]	AUC [15]	Structure (SMILES)
Stable	Stable	Stable	Stable	Stable	2.114 mmol/L/h										C[C@@H]1CCN(C(=O)CC#N)C[C@@H]1N(C)c1ncnc2c1ccn2C(=O)N(C)CCN(C)C(=O)OCc1ccc(/N=N/c2ccc(O)c(C(=O)O)c2)cc1
Stable	Stable	Stable	Stable	Stable	2.87 mmol/L/h										C[C@@H]1CCN(C(=O)CC#N)C[C@@H]1N(C)c1ncnc2c1ccn2CNC(=O)OCc1ccc(/N=N/c2ccc(O)c(C(=O)O)c2)cc1
